Measurements taken from patent publication US8592174B2, “Peptidase substrates” (bioMérieux, S.A., priority 2009, dated 2013).

Columns and labels:
Assay in all cases: Peptidase detection on Columbia medium (Example 2)
Format in all cases: cell-based
Details in all cases: 24 h 37° C.
[1] = system: Candida glabrata NCPF 3 943; design: key to Growth: NG: No growth; 0.5: weak growth; 1: moderate growth; 2: good growth; key to Fluo. / Color / Color post-acid.: —: no color
Method: (§1) The 6 media were distributed into Petri dishes 90 mm in diameter, in a proportion of 20 ml per dish.
(§2) Seventeen strains of microorganisms stemming from collections and belonging to various species of bacteria and yeasts are inoculated in spots of approximately 10 000 colony-forming units.
(§3) The media are incubated for 24 hours at 37° C., and then the colonies formed are examined visually, with or without the addition of acid and under a UV lamp at 365 nm.

[2] = system: Providencia rettgeri NCTC 7 475; design: key to Growth: NG: No growth; 0.5: weak growth; 1: moderate growth; 2: good growth; key to Color: —: no color
Method: as §1, §2, §3

[3] = system: Salmonella typhimurium NCTC 74; design: key to Growth: NG: No growth; 0.5: weak growth; 1: moderate growth; 2: good growth; key to Color: —: no color
Method: as §1, §2, §3

[4] = system: Streptococcus pyogenes NCTC 8 306; design: key to Growth: NG: No growth; 0.5: weak growth; 1: moderate growth; 2: good growth; key to Fluo. / Color / Color post-acid.: —: no color
Method: as §1, §2, §3

[5] = system: Yersinia enterocolitica NCTC 11 176; design: key to Growth: NG: No growth; 0.5: weak growth; 1: moderate growth; 2: good growth; key to Color: —: no color
Method: as §1, §2, §3

[6] = system: Pseudomonas aeruginosa NCTC 10 662; design: key to Growth: NG: No growth; 0.5: weak growth; 1: moderate growth; 2: good growth; key to Color: —: no color
Method: as §1, §2, §3

[7] = system: Staphylococcus aureus NCTC 11 939; design: key to Growth: NG: No growth; 0.5: weak growth; 1: moderate growth; 2: good growth; key to Fluo. / Color / Color post-acid.: —: no color
Method: as §1, §2, §3

[8] = system: Enterococcus faecium NCTC 7 171; design: key to Growth: NG: No growth; 0.5: weak growth; 1: moderate growth; 2: good growth; key to Fluo. / Color / Color post-acid.: —: no color
Method: as §1, §2, §3

[9] = system: Enterococcus faecalis NCTC 775; design: key to Growth: NG: No growth; 0.5: weak growth; 1: moderate growth; 2: good growth; key to Fluo. / Color / Color post-acid.: —: no color
Method: as §1, §2, §3

[10] = system: Serratia marcescens NCTC 10 211; design: key to Growth: NG: No growth; 0.5: weak growth; 1: moderate growth; 2: good growth
Method: as §1, §2, §3

[11] = system: Bacillus subtilis NCTC 9 372; design: key to Growth: NG: No growth; 0.5: weak growth; 1: moderate growth; 2: good growth; key to Fluo. / Color / Color post-acid.: —: no color
Method: as §1, §2, §3

[12] = system: Enterobacter cloacae NCTC 11 936; design: key to Growth: NG: No growth; 0.5: weak growth; 1: moderate growth; 2: good growth
Method: as §1, §2, §3

[13] = system: Escherichia coli NCTC 10 418; design: key to Growth: NG: No growth; 0.5: weak growth; 1: moderate growth; 2: good growth
Method: as §1, §2, §3

[14] = system: Staphylococcus aureus NCTC 6 571; design: key to Growth: NG: No growth; 0.5: weak growth; 1: moderate growth; 2: good growth; key to Fluo. / Color / Color post-acid.: —: no color
Method: as §1, §2, §3

[15] = system: Staphylococcus epidermidis NCTC 11 047; design: key to Growth: NG: No growth; 0.5: weak growth; 1: moderate growth; 2: good growth; key to Fluo. / Color / Color post-acid.: —: no color
Method: as §1, §2, §3

[16] = system: Listeria monocytogenes NCTC 11 994; design: key to Growth: NG: No growth; 0.5: weak growth; 1: moderate growth; 2: good growth; key to Fluo. / Color / Color post-acid.: —: no color
Method: as §1, §2, §3

[17] = system: Candida albicans ATCC 90 028; design: key to Growth: NG: No growth; 0.5: weak growth; 1: moderate growth; 2: good growth; key to Fluo. / Color / Color post-acid.: —: no color
Method: as §1, §2, §3

In the case of `C[n+]1ccc(C=Cc2ccc(NC(=O)[C@@H](N)CC(N)=O)cc2)c2ccccc21.O=C(O)C(F)(F)F.O=C([O-])C(F)(F)F` [Asn-ASQM^+, L-asparaginyl-4-(4′-amidostyryl)-N-methylquinolinium-bis-TFA], the Color ([1]; 80 mg in 400 ml Columbia) is reported as “—”, the Growth ([1]; 80 mg in 400 ml Columbia) is reported as 0.5 and the Color ([2]; 80 mg in 400 ml Columbia) is reported as “—”. The Growth ([2]; 80 mg in 400 ml Columbia) was 2, the Color ([3]; 80 mg in 400 ml Columbia) was “—” and the Growth ([3]; 80 mg in 400 ml Columbia) was 2. The Color ([4]; 80 mg in 400 ml Columbia) was “—”, the Color ([5]; 80 mg in 400 ml Columbia) was “—” and the Growth ([5]; 80 mg in 400 ml Columbia) was 2. The Color ([6]; 80 mg in 400 ml Columbia) was “Pale orange”, the Growth ([6]; 80 mg in 400 ml Columbia) was 2 and the Color ([7]; 80 mg in 400 ml Columbia) was “Orange”. The Growth ([7]; 80 mg in 400 ml Columbia) was 2, the Color ([8]; 80 mg in 400 ml Columbia) was “—” and the Growth ([8]; 80 mg in 400 ml Columbia) was 2. For the same molecule, the Color ([9]; 80 mg in 400 ml Columbia) was “—”, the Growth ([9]; 80 mg in 400 ml Columbia) was 2 and the Color ([10]; 80 mg in 400 ml Columbia) was “Pale orange”. For the same molecule, the Growth ([10]; 80 mg in 400 ml Columbia) was 2, the Color ([11]; 80 mg in 400 ml Columbia) was “Orange” and the Growth ([11]; 80 mg in 400 ml Columbia) was 2. The Color ([12]; 80 mg in 400 ml Columbia) was “Pale orange”, the Growth ([12]; 80 mg in 400 ml Columbia) was 2 and the Color ([13]; 80 mg in 400 ml Columbia) was “Pale orange”. The Growth ([13]; 80 mg in 400 ml Columbia) was 2, the Color ([14]; 80 mg in 400 ml Columbia) was “—” and the Growth ([14]; 80 mg in 400 ml Columbia) was 0.5. The Color ([15]; 80 mg in 400 ml Columbia) was “—”, the Color ([16]; 80 mg in 400 ml Columbia) was “—” and the Growth ([16]; 80 mg in 400 ml Columbia) was 2. The Color ([17]; 80 mg in 400 ml Columbia) was “—” and the Growth ([17]; 80 mg in 400 ml Columbia) was 2.

In the case of `C[n+]1ccc(C=Cc2ccc(NC(=O)[C@@H](N)Cc3ccc(O)cc3)cc2)c2ccccc21.Cl.[Cl-]` [Tyr-ASQM^+, L-tyrosyl-4-(4′-amidostyryl)-N-methylquinolinium dihydrochloride], the Color ([1]; 40 mg in 400 ml Columbia) is reported as “—”, the Growth ([1]; 40 mg in 400 ml Columbia) is reported as “NG” and the Growth ([2]; 40 mg in 400 ml Columbia) is reported as 2. For the same molecule, the Growth ([3]; 40 mg in 400 ml Columbia) was 2, the Color ([4]; 40 mg in 400 ml Columbia) was “—” and the Growth ([4]; 40 mg in 400 ml Columbia) was “NG”. For the same molecule, the Growth ([5]; 40 mg in 400 ml Columbia) was 2, the Color ([6]; 40 mg in 400 ml Columbia) was “—” and the Growth ([6]; 40 mg in 400 ml Columbia) was 2. The Color ([7]; 40 mg in 400 ml Columbia) was “—”, the Growth ([7]; 40 mg in 400 ml Columbia) was “NG” and the Color ([8]; 40 mg in 400 ml Columbia) was “—”. For the same molecule, the Growth ([8]; 40 mg in 400 ml Columbia) was 1, the Growth ([9]; 40 mg in 400 ml Columbia) was 1 and the Color ([10]; 40 mg in 400 ml Columbia) was “Orange”. For the same molecule, the Growth ([10]; 40 mg in 400 ml Columbia) was 2, the Color ([11]; 40 mg in 400 ml Columbia) was “—” and the Growth ([11]; 40 mg in 400 ml Columbia) was 1. For the same molecule, the Color ([12]; 40 mg in 400 ml Columbia) was “Orange”, the Growth ([12]; 40 mg in 400 ml Columbia) was 2 and the Color ([13]; 40 mg in 400 ml Columbia) was “Orange”. The Growth ([13]; 40 mg in 400 ml Columbia) was 2, the Color ([14]; 40 mg in 400 ml Columbia) was “—” and the Growth ([14]; 40 mg in 400 ml Columbia) was “NG”. The Color ([15]; 40 mg in 400 ml Columbia) was “—”, the Growth ([15]; 40 mg in 400 ml Columbia) was 0.5 and the Color ([16]; 40 mg in 400 ml Columbia) was “—”. For the same molecule, the Growth ([16]; 40 mg in 400 ml Columbia) was 1, the Color ([17]; 40 mg in 400 ml Columbia) was “—” and the Growth ([17]; 40 mg in 400 ml Columbia) was 0.5.

With `C[n+]1ccc(C=Cc2ccc(NC(=O)CC[C@H](N)C(=O)O)cc2)c2ccccc21.Cl.[Cl-]` [λ-Glu-ASQM^+, L-gamma-glutamyl-4-(4′-amidostyryl)-N-methylquinolinium (dichloride)] the Color ([1]; 40 mg in 400 ml Columbia) was “—”, the Growth ([1]; 40 mg in 400 ml Columbia) was 1 and the Color ([2]; 40 mg in 400 ml Columbia) was “Orange”. For the same molecule, the Growth ([2]; 40 mg in 400 ml Columbia) was 2, the Color ([3]; 40 mg in 400 ml Columbia) was “Orange” and the Growth ([3]; 40 mg in 400 ml Columbia) was 2. The Color ([4]; 40 mg in 400 ml Columbia) was “—”, the Growth ([4]; 40 mg in 400 ml Columbia) was 1 and the Color ([5]; 40 mg in 400 ml Columbia) was “—”. The Growth ([5]; 40 mg in 400 ml Columbia) was 2, the Color ([6]; 40 mg in 400 ml Columbia) was “Orange” and the Growth ([6]; 40 mg in 400 ml Columbia) was 2. The Color ([7]; 40 mg in 400 ml Columbia) was “—”, the Growth ([7]; 40 mg in 400 ml Columbia) was 1 and the Color ([8]; 40 mg in 400 ml Columbia) was “—”. The Growth ([8]; 40 mg in 400 ml Columbia) was 1, the Color ([9]; 40 mg in 400 ml Columbia) was “—” and the Growth ([9]; 40 mg in 400 ml Columbia) was 1. For the same molecule, the Color ([10]; 40 mg in 400 ml Columbia) was “Orange”, the Growth ([10]; 40 mg in 400 ml Columbia) was 2 and the Color ([11]; 40 mg in 400 ml Columbia) was “—”. For the same molecule, the Growth ([11]; 40 mg in 400 ml Columbia) was 1, the Color ([12]; 40 mg in 400 ml Columbia) was “Orange” and the Growth ([12]; 40 mg in 400 ml Columbia) was 2. For the same molecule, the Color ([13]; 40 mg in 400 ml Columbia) was “Orange”, the Growth ([13]; 40 mg in 400 ml Columbia) was 2 and the Color ([14]; 40 mg in 400 ml Columbia) was “—”. The Growth ([14]; 40 mg in 400 ml Columbia) was 1, the Color ([15]; 40 mg in 400 ml Columbia) was “—” and the Growth ([15]; 40 mg in 400 ml Columbia) was 1. For the same molecule, the Color ([16]; 40 mg in 400 ml Columbia) was “—”, the Growth ([16]; 40 mg in 400 ml Columbia) was 1 and the Color ([17]; 40 mg in 400 ml Columbia) was “—”. The Growth ([17]; 40 mg in 400 ml Columbia) was 1.
